Entries after “also recorded” stand apart in the source; their conditions may differ.

Data set [1] relates to HCMV. The data set is described as follows: HCMV yield in MRC5 fibroblasts at 96 hours post-infection (mTOR inhibitors). The class given is cell-based, human cytomegalovirus. The settings on record: 0.5 pfu/cell, up to 5 μM.
Data set [2] concerns PI3Ks. The conditions noted are these: cited from earlier work.
For data set [3], the system named is HCMV strain AD169. The data set is described as follows: HCMV AD169 replication in human fibroblasts with 4-PBA alone or with mTOR inhibitors, TCID50. The class given is cell-based, human cytomegalovirus.
The subject of data set [4] is confluent human fibroblasts. The data set is described as follows: Trypan blue exclusion viability of confluent human fibroblasts (4-PBA). The settings on record: highest dose tested; eight days. The class given is cell-based. The protocol:
FIG. 11. 4-PBA is not toxic to uninfected or infected confluent human fibroblasts. (A) Fibroblasts were maintained in medium containing the indicated concentrations of 4-PBA for 8 days. The medium was replaced every other day throughout the time course. At the end of the treatment period, cell viability was measured by the trypan blue exclusion assay. Date points represent the mean of duplicate wells. (B) Fibroblasts were infected with HCMV at a multiplicity of 0.1 pfu/cell. Cells were fed every other day with fresh medium containing the indicated concentration of 4-PBA. At eight days post infection, cells were washed once with media, and then media lacking drug was added. Eight days later (16 days post infection) cell free virus in the supernatant was quantitated by the TCID50 method. Date points represent the mean of duplicate wells.
Two experiments were performed to rule out the possibility that 4-PBA is simply toxic to the cells and inhibits HCMV indirectly by reducing cell viability (FIG. 11). In the first experiment (FIG. 11A) an assay for cell viability was performed on confluent human fibroblasts treated for eight days with different concentrations of the drug. The highest dose of the drug tested had no effect on cellular viability in the trypan blue exclusion assay. […] Then the drug was removed and the yield of virus was determined 8 days later.

Data set [5] has as its system panel of 140 protein kinases. The settings on record: read-out: IC50 against panel of 140 protein kinases; cited from earlier work.
For data set [6], the system named is HCMV. The data set is described as follows: HCMV multistep growth in serum-starved human fibroblasts, cell-free virus by TCID50. The class given is cell-based, human cytomegalovirus. The settings on record: day 10; rapamycin 20 nM, Torin1 250 nM; 0.05 PFU/cell.
Data set [7] concerns MCMV. The data set is described as follows: MCMV replication in mouse embryo fibroblasts, TCID50. The settings on record: wild-type MEFs; rapamycin 20 nM, Torin1 250 nM; 0.05 PFU/cell. The class given is cell-based, murine cytomegalovirus.
Data set [8] addresses mTOR (Homo sapiens, UniProt P42345). The conditions noted are these: read-out: IC50 (selective mTOR inhibitors); cited from earlier work.

Consider `CN1CCN(C(=O)c2ccc(NC(=O)Nc3ccc(-c4nc(N5CCOCC5)cc(N5C[C@H]6CC[C@@H](C5)O6)n4)cc3)cc2)CC1` [Wyeth—Compound 27], for which, in data set [1], the “HCMV virus production (yield as percentage of untreated cells)” value is “inhibit virus production”.
Still for that read-out and setting: the same measure for `Cn1c(=O)n(-c2ccc(C(C)(C)C#N)cc2)c2c3cc(-c4cnc5ccccc5c4)ccc3ncc21` [BEZ235]: “inhibit virus production”.
As for `COc1cc(-c2cn(-c3nc(N4CCOCC4)nc(N4CCOCC4)n3)cn2)cc(OC)c1O` [KU-BMCL-200908069-5], in data set [2], the “fold selective versus PI3Ks (PI3K)” value was greater than 500 fold.
As for `O=C([O-])CCCc1ccccc1.[Na+]` [4-PBA, sodium 4-phenylbutyrate], the “virus yield 8 days after drug removal” value in data set [3] (all doses tested, 8-day treatment, 16 days post infection) was “recovered and produced a normal yield”. In addition, the HCMV virus replication result in data set [3] (dose-dependent, day 8 post infection, 0.1 pfu/cell) is “effectively inhibited; also recorded: inhibited virus production”. The “cellular viability, trypan blue exclusion assay” value in data set [4] is reported as “no effect”.
For orientation: IC50 means the concentration at which inhibition is half-maximal. `Cc1c(C(=O)N2CCOc3ccc(-c4ccc(N)nc4)cc3C2)ccc(S(C)(=O)=O)c1F` [XL388]: the IC50 in data set [5] was greater than 3000 nM.
For `CO[C@H]1C[C@@H]2CC[C@@H](C)[C@@](O)(O2)C(=O)C(=O)N2CCCC[C@H]2C(=O)O[C@H]([C@H](C)C[C@@H]2CC[C@@H](O)[C@H](OC)C2)CC(=O)[C@H](C)/C=C(\C)[C@@H](O)[C@@H](OC)C(=O)[C@H](C)C[C@H](C)/C=C/C=C/C=C/1C` [rapamycin], the “reduction of HCMV yield” value in data set [6] is on record as roughly 8 fold. Moreover, the MCMV replication result in data set [7] is “no inhibitory effect”.
In the case of `CNC(=O)Nc1ccc(-c2nc(N3C[C@H]4CC[C@@H](C3)O4)c3cnn(C4CCC5(CC4)OCCO5)c3n2)cc1` [WYE-125132], the IC50 in data set [8] was 0.19 nM. Also, the “fold selective versus PI3Ks (PI3K)” value in data set [2] is > 5,000 fold.
In the case of `CC(C)n1nc(-c2ccc3oc(N)nc3c2)c2c(N)ncnc21` [INK128], the “HCMV virus production (yield as percentage of untreated cells)” value in data set [1] was “inhibit virus production”.
For the compound `O=C(Nc1ccc(-c2nc(N3CC4CCC(C3)O4)c3sccc3n2)cc1)NC1CC1` [Wyeth-BMCL-200910075-9b], the IC50 in data set [8] was 0.7 nM. Also, in data set [2], the “fold selective versus PI3Ks (PI3K)” value was > 1,000 fold.

Source of the values: patent US20140206678A1, “INHIBITORS OF MTOR KINASE AS ANTI -VIRAL AGENT” (KADMON CORPORATION, LLC, priority 2011, published 2014).
